Experiments:
[1] = tested on: lipid-encapsulated viruses; details: in vitro; cited from earlier work
[2] = tested on: glioblastoma multiforme; experiment: Example Two: treatment of a patient; format: in vivo, human; details: dose escalated to 22 mg/kg
Method: A person living in Argentina was diagnosed with glioblastoma multiforme in January of 2014 and was immediately treated with surgery, chemotherapy, and radiation.
Shortly thereafter, near the middle of October, the patient began receiving the following regimen, alfacalcidol not being available: valganciclovir, 450 mg twice a day melatonin, 12 mg twice a day
BHT, 700 mg in the morning plus 350 mg at night resveratrol, 175 mg twice a day lycopene, 15 mg once a day
Honokiol, 250 mg twice a day metformin, 500 mg once a day, and vitamin D3, 2800 IU at night.
About two weeks later, bio-absorbable curcumin (from the Life Extension Foundation, described above), 400 mg twice a day, was added to the regimen, and circa November 4th, alfacalcidol was added to the regimen (3 micrograms in the morning).
The supply of alfacalcidol ran out at about that time. At the same time, sugar and other carbohydrate intake was restricted. In February, the dexamethasone dose was cut to 1 and 2 mg in the morning and evening, respectively. […] Alfacalcidol was resumed in April, at a double dose (3 micrograms twice a day) to compensate in part for the previous lapse, at which time the dexamethasone dose was cut to 1 mg twice a day. The tumor continued to show no progression in May, and the alfacalcidol dose was reduced to 2 micrograms twice a day in June, when the metformin dose was raised to […] in the morning. […]

[3] = normal brains; cited from earlier work
[4] = tested on: glioblastoma; details: in lab dishes; cited from earlier work

Cc1cc(C(C)(C)C)c(O)c(C(C)(C)C)c1 [BHT, butylated hydroxytoluene]
killing of lipid-encapsulated viruses [1]: kill lipid-encapsulated viruses

O=C(O)C(Cl)Cl [DCA, dichloroacetate]
side effect of DCA [2]: numbness was experienced

Oc1ccc(C=Cc2cc(O)cc(O)c2)cc1 [Resveratrol]
blood-brain barrier penetration [3]: poorly if at all
anti-glioblastoma effects [4]: powerful anti-glioblastoma effects
